This note sets out measurements from patent US9241951B2, “Of gastrointestinal health, immunity and performance by dietary intervention” (BIOATLANTIS LTD, priority 2009, dated 2016).

Test in all cases: Mucin gene expression in ileum and colon (qPCR), Example 5
Common to all, as to format: in vivo, pig
Background: Real-time PCR tracks product formation cycle by cycle.

One test has as its system MUC4. Here is the method:
(§1) 21 pigs with an initial weight of 17.9±2.2 Kg were assigned to one of the 3 dietary treatments: (T1) control; (T2) basal diet+300 ppm LAM; (T3) basal diet+600 ppm LAM. Experimental feeding continued for 21 days ad libitum. Diets were formulated to have similar digestible energy (DE) (14.4 MJ/Kg) and ileal digestible lysine (12.5 g/Kg).
(§2) Ileal and colonic tissues was stabilised in RNAlater® solution and stored overnight at 4° C. The following day, RNAlater® was removed and samples were stored at −86° C. prior to RNA extraction.
(§3) Tissue samples for RNA extraction were removed from −86° C. and homogenised. 500 μl of lysis solution/2-ME was added to each sample and these were mechanically disrupted using one 5 mm stainless steel bead per sample. These were then placed in a Tissue Lyser (Qiagen) and lysates were homogenised for 3 mins and transferred to a GenElute Filtration Column (Sigma Aldrich) and RNA was extracted. 1 µg of total RNA was used for cDNA synthesis using oligo(dT)20 primer in a final reaction volume of 20 μl with Superscript™ III First-Strand synthesis system for reverse transcriptase-polymerase chain reaction (RT-PCR) (Invitrogen Life Technologies, Carlsbad, Calif.). At the last step of cDNA synthesis, treatment with E. coli RNase H (Invitrogen Corp.) was performed to digest the remaining RNA/mRNA template, resulting in the production of the single-stranded cDNA template for subsequent qRT-PCR reactions.
(§4) All porcine primers for the cytokine genes interferon gamma (IFN-γ), interleukin-1α (IL-1α), IL-6, IL-8, IL-10, IL-17, tumour necrosis factor (TNF-α), the mucin genes (MUCs 1, 2, 4, 5AC, 12, 13 and 20) and three reference genes, β-actin (ACTB), Glyceraldehyde-3-phosphate dehydrogenase (GAPDH) and Peptidylprolyl isomerase A (PPIA), were designed using Primer Express™ (PE Applied Biosystems, Foster City, Calif.) and synthesised by MWG Biotech (Milton Keynes, UK). These reference genes were previously validated for use in porcine tissue and qPCR was then carried out on the cDNA using the ABI PRISM 7900HT Fast sequence detection system for 96-well plates (Applied Biosystems, Foster City, Calif.). All samples were prepared in duplicate using SYBR Green Fast PCR Master Mix (Applied Biosystems, Foster City, Calif.), cDNA as template and specific primers for the genes selected. For each reaction 5 μl cDNA, 1.2 μl (forward and reverse primer mix, 5 μM), 10 μl Fast SYBR Green PCR Master Mix (PE Applied Biosystems, Foster City, Calif.) was added and made up to a final volume of 20 μl. The two step PCR program was as follows: 95° C. for 10 minutes for 1 cycle followed by 95° C. for 15 seconds and 60° C. for 1 minute for 40 cycles. The raw Ct values for the reference genes were converted to relative quantities using the formula Q=E ^ΔCt where E is the PCR efficiency of the assay and ^ΔCt is the value calculated for the difference between the lowest Ct value for each gene minus the Ct value of the sample in question. The relative quantities of the endogenous controls were then analysed for stability in geNorm (Vandesompele et al., 2002). The stability ‘M’ value generated by the geNorm application for the selected endogenous controls (ACTB, GAPDH and PPIA) indicated their suitability as endogenous controls for these intestinal samples. The geometric mean of the relative quantities for ACTB, GAPDH and PPIA (normalisation factor) was then calculated using geNorm. The relative quantities of each target gene were divided by the normalisation factor (obtained in geNorm) for that sample to give the final normalised relative expression.

In another test the test system is MUC12. The settings on record: LAM supplementation. Here is the method: as §1, §2, §3, §4
The test system of a further test is MUC2. Here is the method: as §1, §2, §3, §4
The test system of the next test is MUC5AC. The note with it: colon; LAM supplementation. Here is the method: as §1, §2, §3, §4
The next test relates to MUC13. The settings on record: LAM supplementation. Here is the method: as §1, §2, §3, §4
In a further test the test system is MUC20. The note with it: LAM supplementation. Here is the method: as §1, §2, §3, §4

On to laminarin, for which the MUC4 expression entry in the test with MUC4 (colon, LAM 600 ppm) is listed as “significantly increased”; with MUC4 (ileum, LAM supplementation) it was “no effect”. The MUC12 expression entry in the test on MUC12 (colon) and in the test with MUC12 (ileum) was “no effect” each time. Also, the MUC2 expression entry is “significantly increased” with MUC2 (colon, LAM 600 ppm) and “increase” in the test with MUC2 (ileum, LAM 300 ppm relative to control animals). Besides, the “increased MUC2 expression” value with MUC2 (ileum, LAM 600 ppm) is reported as “not observed”. For the same substance, the MUC5AC expression entry in the test with MUC5AC is “no effect”. The MUC13 expression result with MUC13 (colon) and in the test on MUC13 (ileum) was “no effect” each time. The MUC20 expression result in the test on MUC20 (colon) and with MUC20 (ileum) was “no effect” throughout.
